Test results reported in patent US20240117005A1, “NOVEL BICYCLIC PEPTIDES” (THE COUNCIL OF THE QUEENSLAND INSTITUTE OF MEDICAL RESEARCH, priority 2021, published 2024).
“Also recorded” adds a separate entry of the source. No end group written: not given here. *: point of attachment. Myristyl = CCCCCCCCCCCCCC*

Tested on: PD-L1-Me3 (PD-L1-PTM2)
Experiment: High resolution digital pathology of PD-L1-Me3 (PDL1-PTM2) localisation
Type: cell-based, human
Details: for cytoplasmic expression of PDL1-PTM2 (PDL1-Me3): MDA-MB-231, vs vehicle control
Procedure: To examine the signature of CD8, CSV, EGFR, ABCB5, FOXQ1, commercial PD-L1-28-8, nuclear PD-L1, cytoplasmic PDL1 in MDA-MB-231 TNBC cells/TNBC brain cancer clone cells (untreated or treated with bicyclic inhibitors targeting nuclear PD-L1-PTM1). MDA-MB-231/MDA-MB-231-Br cells were permeabilised by incubating with 0.5% Triton X-100 for 15 min, blocked with 1% BSA in PBS and were probed with either CSV (Mouse host), CD8 (mouse host), EGFR (Rabbit host), ABCB5 (Goat Host), ALDH1A (Rabbit Host), NODAL (Goat Host), nuclear PDL1 (rabbit host), cytoplasmic PD-L1 (rabbit host) visualized with a donkey anti-rabbit AF 488, anti-mouse AF 568, donkey anti-goat 647. Cover slips were mounted on glass microscope slides with ProLong Glass Antifade reagent (Life Technologies). Protein targets were localised by digital pathology laser scanning microscopy. Single 0.5 μm sections were obtained using a ASI Digital pathology microscope using 100× oil immersion lens running ASI software. The final image was obtained by averaging four sequential images of the same section. Digital images were analyzed using automated ASI software (Applied Spectral Imaging, Carlsbad, CA) to determine the distribution and intensities automatically with automatic thresholding and background correction of the average nuclear fluorescence intensity (NFI), allowing for the specific targeting of expression of proteins of interest. Digital images were also analysed using ImageJ software (ImageJ, NIH, Bethesda, MD, USA) to determine the total cell fluorescence or cell surface only fluorescence for non-permeabilised cells. Digital images were analysed using ImageJ software (ImageJ, NIH, Bethesda, MD, USA) to determine either the Total Nuclear Fluorescent Intensity (TNFI), the Total Cytoplasmic Fluorescent Intensity (TCFI). ImageJ software with automatic thresholding and manual selection of regions of interest (ROIs) specific for cell nuclei was used to calculate the Pearson's co-efficient correlation (PCC) for each pair of antibodies. PCC values range from: −1=inverse of co-localisation, 0=no co-localisation, +1=perfect co-localisation. The Mann-Whitney nonparametric test (GraphPad Prism, GraphPad Software, San Diego, CA) was used to determine significant differences between datasets.
All breast cancer cell lines used were sourced from ATCC. MDA-MB-231 or MDB-MB-231-Br cell lines were maintained and cultured in DMEM (Invitrogen) supplemented with 10% FBS, 2 mM L-glutamine, and 1% PSN. MCF-7 cells were stimulated with 1.29 ng/mL phorbol 12-myristate 13-acetate (PMA) (Sigma-Aldrich) or 5 ng/ml recombinant TGF-β1 (R&D Systems) for 60 hours. For inhibitor studies, 2×10^5 cells were seeded in 2 mL complete media in 6 well plates and incubated overnight at 37° C./5% CO2. Cells were treated with PD-L1 bicyclic peptides targeting the nuclear axis PD-L1, HDAC2i or vehicle control. For qPCR analysis, at each time point, adherent cells were trypsinized, washed and cell pellets stored at −80° C. until further processing. For microscopy studies, 4×10^4 cells were seeded on coverslips and treated with inhibitors as described above. At each timepoint, coverslips were washed, fixed with 3.7% formaldehyde (Sigma) and stored at 4° C. until processing. […]
MDA-MB-231 were permeabilized and treated with either vehicle control or, DL-2 (current stock), or linear PDL1 (PDL1-L1). […] Significant differences are calculated as one-way ANOVA Kruskal-Wallis test comparison to vehicle control. […]

CCCCCCCCCCCCCC(=O)NC(C)C(=O)NC1CSCc2cc3cc(c2)CSC[C@H](NC(=O)[C@H](Cc2ccccc2)NC(=O)[C@H](C(C)CC)NC(=O)[C@H](Cc2ccccc2)NC(=O)[C@H]([C@@H](C)O)NC(=O)C(CC(C)C)NC1=O)C(=O)N[C@@H](CCCNC(C)=N)C(=O)N[C@@H](CC(C)C)C(=O)N[C@@H](CCCNC(=N)N)C(=O)N[C@@H](CCCCN)C(=O)NCC(=O)N[C@@H](CCCNC(=N)N)C(=O)NC(C(=O)N[C@@H](CCSC)C(=O)NC(CCSC)C(=O)N[C@@H](CC(=O)O)C(=O)NC(C(=O)N[C@@H](CCCCN)C(=O)NC(CCCCN)C(=O)O)C(C)C)CSC3 (mixture of isomers) [DL-2]
cytoplasmic expression of PDL1-PTM2 (PDL1-Me3): induce increased cytoplasmic expression
expression of cell surface PD-L1-Me3 (non-permeabilized MDA-MB-231 cells): significant upregulation
cytoplasmic/cell surface PD-L1-Me3 (permeabilized MDA-MB-231 cells): significantly upregulating
expression of nuclear PD-L1-Me3 (permeabilized MDA-MB-231 cells): abrogating

LTFIFRLRKGRMMDVKK (Myristyl-LTFIFRLRKGRMMDVKK) [PDL1-L1, Myristyl- linear peptide, prototype]
cytoplasmic expression of PDL1-PTM2 (PDL1-Me3) (listed as linear PDL1 peptide): not able to induce any increased expression; also recorded: did not induce any increased expression
